Assay results taken from patent US20130040845A1, “METHOD FOR SCREENING RECEPTORS/LIGANDS INTERACTIONS” (IMMUNE DISEASE INSTITUTE, INC., priority 2010, published 2013).

Experiments:
RARγ receptor = target: T1, RARγ receptor (Homo sapiens, UniProt P13631); conditions: cited from earlier work
T1 sequence (P13631 1-454): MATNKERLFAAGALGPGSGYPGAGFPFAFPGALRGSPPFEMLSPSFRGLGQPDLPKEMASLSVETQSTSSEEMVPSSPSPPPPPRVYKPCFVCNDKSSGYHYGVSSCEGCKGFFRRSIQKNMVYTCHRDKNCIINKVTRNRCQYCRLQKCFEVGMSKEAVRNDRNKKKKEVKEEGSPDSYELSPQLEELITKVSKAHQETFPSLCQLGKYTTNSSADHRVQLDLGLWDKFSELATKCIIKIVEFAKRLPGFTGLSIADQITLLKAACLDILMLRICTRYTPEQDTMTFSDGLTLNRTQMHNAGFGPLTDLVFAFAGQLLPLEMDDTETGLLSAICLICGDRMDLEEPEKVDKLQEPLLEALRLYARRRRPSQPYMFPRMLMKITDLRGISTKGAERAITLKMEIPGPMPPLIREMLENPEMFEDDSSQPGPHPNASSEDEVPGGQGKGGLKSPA

RARβ receptor = target: T2, RARβ receptor (Homo sapiens, UniProt P10826); conditions: cited from earlier work
T2 sequence (P10826 1-455): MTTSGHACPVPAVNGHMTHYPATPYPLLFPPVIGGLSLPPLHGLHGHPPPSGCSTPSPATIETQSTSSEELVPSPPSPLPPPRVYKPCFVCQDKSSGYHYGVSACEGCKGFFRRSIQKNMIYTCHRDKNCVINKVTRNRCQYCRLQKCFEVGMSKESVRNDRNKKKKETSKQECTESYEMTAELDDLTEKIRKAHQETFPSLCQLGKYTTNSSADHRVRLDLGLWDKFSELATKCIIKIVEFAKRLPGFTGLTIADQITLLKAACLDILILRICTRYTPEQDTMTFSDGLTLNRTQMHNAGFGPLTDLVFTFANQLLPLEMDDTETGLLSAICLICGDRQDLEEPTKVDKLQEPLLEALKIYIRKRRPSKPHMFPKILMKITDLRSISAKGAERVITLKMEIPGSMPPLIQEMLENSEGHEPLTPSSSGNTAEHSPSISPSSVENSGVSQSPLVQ

RARα receptor = target: T3, RARα receptor (Homo sapiens, UniProt P10276); conditions: cited from earlier work
T3 sequence (P10276 1-462): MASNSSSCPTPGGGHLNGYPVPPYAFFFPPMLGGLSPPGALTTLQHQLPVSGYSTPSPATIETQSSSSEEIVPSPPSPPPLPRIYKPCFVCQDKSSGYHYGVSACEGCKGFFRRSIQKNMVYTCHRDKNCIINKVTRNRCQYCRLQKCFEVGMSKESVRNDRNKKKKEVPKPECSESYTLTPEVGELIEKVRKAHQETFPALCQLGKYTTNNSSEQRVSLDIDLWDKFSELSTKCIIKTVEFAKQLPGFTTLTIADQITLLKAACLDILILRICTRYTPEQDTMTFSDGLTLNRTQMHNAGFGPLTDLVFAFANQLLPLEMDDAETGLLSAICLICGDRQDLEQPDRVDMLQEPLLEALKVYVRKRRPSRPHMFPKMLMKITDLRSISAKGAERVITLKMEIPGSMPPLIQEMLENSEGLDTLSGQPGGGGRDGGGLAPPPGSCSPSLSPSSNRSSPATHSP

[1] = target: T4, VWF A1 domain/GPIbα interaction (Homo sapiens, UniProt P04275+P07359); experiment: Single-molecule optical tweezer force-extension (pulling) assay on covalently tethered A1-GPIbα chimeric fusion polypeptide; format: binding; conditions: presence vs absence of activator, fixed pulling rate (FIG. 5D-5F)
T4 construct: human VWF A1 domain (Ile1262 to Pro1466 with pre-pro-VWF numbering); human platelet GPIbα (His1 to Arg290) were PCR-amplified; made in house; host or cells: HEK293T
Text: In the example described herein, the inventors tethered this single polypeptide to the solid surfaces of two different microspheres using double-stranded DNA (dsDNA) handles. One end of the chimeric polypeptide was tethered to a first dsDNA handle and the other end of the polypeptide was tethered to a second dsDNA handle. The polypeptide was coupled to the dsDNA handles via S—S-bond or disulfide bridges. The free ends of the dsDNA were then linked to digoxigenin or biotin (see FIGS. 3A, 4B & 4C, 10). The dsDNA coupled A1/GPIbα polypeptide was then mixed with beads that were coated with either anti-digoxigenin or streptavidin. The inventors then manipulated the beads with a pipette and a focus laser beam from an optical tweezer to stretch out or extend the A1/GPIbα polypeptide in order to study the minute forces, in pico Newtons (pN), required to dissociate the VWF A1 domain/GPIbα interaction. […] In addition, the inventors measured the extensions of the VWF A1 domain/GPIbα polypeptide that are required to keep the extension force constant. […]
In the example, the inventors monitored the forces applied to the A1/GPIbα polypeptide that is required to extend or stretch out the polypeptide from a ligand-bound state to a ligand-unbonud state with an optical tweezer (see FIG. 8 for the ligand bound and non-ligand bound state of the A1/GPIbα polypeptide). […]

T4 sequence (P04275 1262-1466): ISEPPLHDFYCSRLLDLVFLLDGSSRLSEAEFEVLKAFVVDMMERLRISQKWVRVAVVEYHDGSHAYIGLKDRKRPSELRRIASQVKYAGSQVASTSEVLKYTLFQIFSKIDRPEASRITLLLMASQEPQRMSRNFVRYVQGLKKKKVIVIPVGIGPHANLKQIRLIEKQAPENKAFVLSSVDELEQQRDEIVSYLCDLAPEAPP
T4 sequence (P07359 17-306): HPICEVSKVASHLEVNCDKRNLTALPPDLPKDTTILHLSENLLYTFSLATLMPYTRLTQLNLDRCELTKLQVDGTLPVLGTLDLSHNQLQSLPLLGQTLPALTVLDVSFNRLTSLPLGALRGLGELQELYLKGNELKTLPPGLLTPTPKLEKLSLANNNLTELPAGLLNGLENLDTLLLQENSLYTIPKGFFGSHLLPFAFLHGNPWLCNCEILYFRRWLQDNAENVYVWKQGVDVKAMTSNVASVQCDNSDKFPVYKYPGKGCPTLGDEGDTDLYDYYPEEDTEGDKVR

Molecule	Kd (RARγ receptor) [µM]	Kd (RARβ receptor) [µM]	Kd (RARα receptor) [µM]	average dissociative/unbinding force for the A1/GPIbα interaction [1]
O=C(O)c1ccc(-c2ccc3cc(O)c(C45CC6CC(CC(C6)C4)C5)cc3c2)cc1 [CD 1530, 4-(6-Hydroxy-7-tricyclo[3.3.1.13,7]dec-1-yl-2-naphthalenyl) benzoic acid]	0.15	1.5	2.75	
botrocetin				increased the average dissociative/unbinding force
ristocetin				increased the average dissociative/unbinding force
